Source: US10544106B2, “Certain chemical entities, compositions, and methods” (NeuPharma, Inc., priority 2016, dated 2020)

Target: BTK (Homo sapiens (Human), UniProt Q06187)
Assay: Z'-LYTE kinase inhibition assay against BTK
Type: biochemical
Details: for inhibition at 0.1 µM: compound at 100 nM, ATP concentration at Km; for IC50: series of concentrations, GraphPad Prism 5
Summary of the method: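 Z′-LYTE FRET readout: 1.04-10.4 ng BTK with 2 μM Tyr 01 peptide, ATP at Km, in 50 mM HEPES pH 7.5, 10 mM MgCl2, 1 mM EGTA, 0.01% BRIJ-35, 1% DMSO. 60 min kinase reaction at room temperature, then 60 min development; IC50 from 10-point, 3-fold titrations.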

Chain of BTK (Q06187 whole entry): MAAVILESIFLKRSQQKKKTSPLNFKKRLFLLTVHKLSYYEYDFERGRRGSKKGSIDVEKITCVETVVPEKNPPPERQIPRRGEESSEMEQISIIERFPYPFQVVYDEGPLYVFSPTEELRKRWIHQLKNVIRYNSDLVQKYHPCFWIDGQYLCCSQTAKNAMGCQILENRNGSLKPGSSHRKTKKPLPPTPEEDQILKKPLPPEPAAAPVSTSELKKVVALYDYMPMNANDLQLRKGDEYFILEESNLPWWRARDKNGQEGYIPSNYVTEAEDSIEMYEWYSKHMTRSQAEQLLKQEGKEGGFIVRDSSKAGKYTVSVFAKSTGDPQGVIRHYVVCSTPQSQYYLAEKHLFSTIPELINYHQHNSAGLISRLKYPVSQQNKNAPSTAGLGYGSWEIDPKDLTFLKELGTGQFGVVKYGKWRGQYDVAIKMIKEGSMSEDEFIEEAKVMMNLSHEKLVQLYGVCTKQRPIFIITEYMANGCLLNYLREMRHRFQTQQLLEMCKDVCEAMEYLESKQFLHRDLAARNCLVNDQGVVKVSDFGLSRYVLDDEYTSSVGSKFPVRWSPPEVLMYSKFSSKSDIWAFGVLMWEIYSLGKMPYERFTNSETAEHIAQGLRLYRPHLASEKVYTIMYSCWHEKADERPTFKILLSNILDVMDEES

SMILES | inhibition at 0.1 µM [%] | IC50 [nM]
C=CC(=O)Nc1cccc(-c2cc(-c3ccc(Oc4ccccc4)nc3)cc3cncnc23)c1 [C061, N-(3-(6-(6-phenoxypyridin-3-yl)quinazolin-8-yl)phenyl)acrylamide] | > 50 | < 100
C=CC(=O)Nc1cccc(-c2cc(-c3ccccc3)cc3cnc(-c4ccccc4)nc23)c1 [C001, N-(3-(2,6-diphenylquinazolin-8-yl)phenyl)acrylamide] | < 50 | 
C=CC(=O)Nc1cccc(-c2cc(-c3ccc(Oc4ccc(Cl)cc4)nc3)cc3cncnc23)c1 [C072, N-(3-(6-(6-(4-chlorophenoxy)pyridin-3-yl)quinazolin-8-yl)phenyl)acrylamide] | < 50 | 
C=CC(=O)N1CCC(c2cc(-c3ccccc3F)cc3cncnc23)C1 (stereo not shown) [C084, 1-(3-(6-(2-fluorophenyl)quinazolin-8-yl)pyrrolidin-1-yl)prop-2-en-1-one] | < 50 | 
C=CC(=O)N1CCCC(c2cc(-c3ccccc3)cc3cncnc23)C1 (stereo not shown) [C020, 1-(3-(6-phenylquinazolin-8-yl)piperidin-1-yl)prop-2-en-1-one] | < 50 | 
C=CC(=O)N1CCC(c2cc(-c3ccc(Oc4ccccc4)nc3)cc3cncnc23)C1 (stereo not shown) [C077, 1-(3-(6-(6-phenoxypyridin-3-yl)quinazolin-8-yl)pyrrolidin-1-yl)prop-2-en-1-one] | < 50 | 
C=CC(=O)Nc1cccc(-c2cc(-c3ccc(C(=O)Nc4cccnc4)cc3)cc3cncnc23)c1 [C113, 4-(8-(3-acrylamidophenyl)quinazolin-6-yl)-N-(pyridin-3-yl)benzamide] | < 50 | 
C=CC(=O)Nc1cccc(-n2c(-c3ccccc3)nc3cnc(N)nc32)c1 [C024, N-(3-(2-amino-8-phenyl-9H-purin-9-yl)phenyl)acrylamide] | < 50 | 
C=CC(=O)Nc1cccc(-c2cc(-c3ccc(Oc4ccccc4)cc3)cc3cncnc23)c1 [C023, N-(3-(6-(4-phenoxyphenyl)quinazolin-8-yl)phenyl)acrylamide] | > 50 | < 100
C=CC(=O)Nc1cccc(-c2cc(-c3ccc(C)nc3)cc3cnc(N)nc23)c1 [C038, N-(3-(2-amino-6-(6-methylpyridin-3-yl)quinazolin-8-yl)phenyl)acrylamide] | > 50 | < 100
C=CC(=O)Nc1cccc(-c2cc(-c3ccc(Oc4cc(C#N)ccn4)cc3F)cc3cncnc23)c1 [C189, N-(3-(6-(4-((4-cyanopyridin-2-yl)oxy)-2-fluorophenyl)quinazolin-8-yl)phenyl)acrylamide] | > 50 | < 100
C=CC(=O)N1CCC(n2c(-c3ccccc3F)nc3cncnc32)C1 (stereo not shown) [C032, 1-(3-(8-(2-fluorophenyl)-9H-purin-9-yl)pyrrolidin-1-yl)prop-2-en-1-one] | < 50 | 
C=CC(=O)Nc1cccc(-c2cc(-c3ccc(C(=O)Nc4cc(C#N)ccn4)cc3F)cc3cncnc23)c1 [C154, 4-(8-(3-acrylamidophenyl)quinazolin-6-yl)-N-(4-cyanopyridin-2-yl)-3-fluorobenzamide] | > 50 | 
C=CC(=O)Nc1cccc(-c2cc(-c3cncc(OC)c3)cc3cnc(N)nc23)c1 [C110, N-(3-(2-amino-6-(5-methoxypyridin-3-yl)quinazolin-8-yl)phenyl)acrylamide] | > 50 | 
C=CC(=O)Nc1cccc(-c2cc(-c3cccc(Nc4ccccc4)c3)cc3cncnc23)c1 [C017, N-(3-(6-(3-(phenylamino)phenyl)quinazolin-8-yl)phenyl)acrylamide] | > 50 | 
C=CC(=O)Nc1cccc(-c2cc(-c3ccc(C(=O)Nc4ccccc4)nc3)cc3cncnc23)c1 [C050, 5-(8-(3-acrylamidophenyl)quinazolin-6-yl)-N-phenylpicolinamide] | > 50 | 
C=CC(=O)Nc1cccc(-c2cc(-c3ccc(C(=O)N4CCOCC4)cc3)cc3cncnc23)c1 [C101, N-(3-(6-(4-(morpholine-4-carbonyl)phenyl)quinazolin-8-yl)phenyl)acrylamide] | > 50 | 
C=CC(=O)Nc1cccc(-c2cc(-c3ccc(C(=O)Nc4cccc(C(F)(F)F)c4)nc3)cc3cncnc23)c1 [C071, 5-(8-(3-acrylamidophenyl)quinazolin-6-yl)-N-(3-(trifluoromethyl)phenyl)picolinamide] | > 50 | 
C=CC(=O)Nc1cccc(-c2cc(-c3ccccc3)cc3c(N)ncnc23)c1 [C016, N-(3-(4-amino-6-phenylquinazolin-8-yl)phenyl)acrylamide] | < 50 | 
C=CC(=O)N1CCC(c2cc(-c3cccnc3)cc3cncnc23)C1 (stereo not shown) [C043, 1-(3-(6-(pyridin-3-yl)quinazolin-8-yl)pyrrolidin-1-yl)prop-2-en-1-one] | < 50 | 
C=CC(=O)N1CCC(c2cc(-c3ccccc3)cc3cncnc23)C1 (stereo not shown) [C047, 1-(3-(6-phenylquinazolin-8-yl)pyrrolidin-1-yl)prop-2-en-1-one] | > 50 | 

The next lines start with the values.

inhibition at 0.1 µM [%] | IC50 [nM] | SMILES
< 50 |  | C=CC(=O)N1CCC(c2cc(-c3ccc(C(=O)Nc4cccc(C)c4)nc3)cc3cncnc23)C1 (stereo not shown) [C080, 5-(8-(1-acryloylpyrrolidin-3-yl)quinazolin-6-yl)-N-(m-tolyl)picolinamide]
< 50 |  | C=CC(=O)N1CCC(c2ccc(-c3ccc(C(=O)Nc4ccccn4)cc3)c3cncnc23)C1 (stereo not shown) [C049, 4-(8-(1-acryloylpyrrolidin-3-yl)quinazolin-5-yl)-N-(pyridin-2-yl)benzamide]
< 50 |  | C=CC(=O)N1CCC=C(c2cc(-c3ccc(C(=O)Nc4ccccn4)cc3)cc3cncnc23)C1 [C009, 4-(8-(1-acryloyl-1,2,5,6-tetrahydropyridin-3-yl)quinazolin-6-yl)-N-(pyridin-2-yl)benzamide]
< 50 |  | C=CC(=O)Nc1cccc(-c2cc(-c3ccc(C(=O)Nc4cc(C(F)(F)F)ccn4)c(F)c3)cc3cncnc23)c1 [C127, 4-(8-(3-acrylamidophenyl)quinazolin-6-yl)-2-fluoro-N-(4-(trifluoromethyl)pyridin-2-yl)benzamide]
< 50 |  | C=CC(=O)Nc1cccc(-c2cc(-c3ccc(C(=O)Nc4cc(C)ccn4)cc3)cc3cnc(N)nc23)c1 [C036, 4-(8-(3-acrylamidophenyl)-2-aminoquinazolin-6-yl)-N-(4-methylpyridin-2-yl)benzamide]
> 50 | < 100 | C=CC(=O)N1CCC(c2nc(-c3ccc(Oc4cc(C(F)(F)F)ccn4)c(F)c3)n3c(N)nccc23)C1 (stereo not shown) [C206, 1-(3-(5-amino-3-(3-fluoro-4-((4-(trifluoro-methyl)pyridin-2-yl)oxy)phenyl)imidazo[1,5-c]pyrimidin-1-yl)pyrrolidin-1-yl)prop-2-en-1-one]
> 50 | < 100 | C=CC(=O)N1CCC(c2cc(-c3ccc(C(=O)Nc4ccccn4)cc3Cl)cc3cncnc23)C1 (stereo not shown) [C067, 4-(8-(1-acryloylpyrrolidin-3-yl)quinazolin-6-yl)-3-chloro-N-(pyridin-2-yl)benzamide]
> 50 |  | C=CC(=O)N1CCC(c2nc(-c3ccc(Oc4ncccc4C(F)(F)F)c(F)c3)n3c(N)nccc23)C1 (stereo not shown) [C223, 1-(3-(5-amino-3-(3-fluoro-4-((3-(trifluoro-methyl)pyridin-2-yl)oxy)phenyl)imidazo[1,5-c]pyrimidin-1-yl)pyrrolidin-1-yl)prop-2-en-1-one]
> 50 | < 100 | C=CC(=O)N1CCC(c2cc(-c3ccc(Oc4ccccc4)cc3)cc3cnc(N)nc23)C1 (stereo not shown) [C078, 1-(3-(2-amino-6-(4-phenoxyphenyl)quinazolin-8-yl)pyrrolidin-1-yl)prop-2-en-1-one]
< 50 |  | C=CC(=O)Nc1cccc(-c2cc(-c3ccc(C(=O)Nc4ccccn4)cc3)cc3cnc(N)nc23)c1 [C040, 4-(8-(3-acrylamidophenyl)-2-aminoquinazolin-6-yl)-N-(pyridin-2-yl)benzamide]
< 50 |  | C=CC(=O)N1CCC(c2cc(-c3ccc(C(=O)Nc4cc(C5CC5)ccn4)c(F)c3)n3cnccc23)C1 (stereo not shown) [C165, 4-(5-(1-acryloylpyrrolidin-3-yl)pyrrolo[1,2-c]pyrimidin-7-yl)-N-(4-cyclopropylpyridin-2-yl)-2-fluorobenzamide]
< 50 |  | C=CC(=O)N1CCC(c2cc(-c3ccc(C(=O)Nc4cccc(C(F)(F)F)c4)nc3)cc3cncnc23)C1 (stereo not shown) [C093, 5-(8-(1-acryloylpyrrolidin-3-yl)quinazolin-6-yl)-N-(3-(trifluoromethyl)phenyl)picolinamide]
< 50 |  | C=CC(=O)N1CCC(c2cc(-c3ccccc3)cc3cnc(N)nc23)C1 (stereo not shown) [C083, 1-(3-(2-amino-6-phenylquinazolin-8-yl)pyrrolidin-1-yl)prop-2-en-1-one]
 | < 100 | C=CC(=O)N1CCC(c2nc(-c3ccc(C(=O)Nc4cc(C(F)(F)F)ccn4)cc3)n3c(N)nccc23)C1 (stereo not shown) [C242, 4-(1-(1-acryloylpyrrolidin-3-yl)-5-amino-imidazo[1,5-c]pyrimidin-3-yl)-N-(4-(trifluoromethyl)pyridin-2-yl)benzamide]
< 50 |  | C=CC(=O)N1CCC(c2cc(-c3ccc(Oc4cc(C(F)(F)F)ccn4)cc3)cc3cnc(N)nc23)C1 (stereo not shown) [C104, 1-(3-(2-amino-6-(4-((4-(trifluoromethyl)pyridin-2-yl)oxy)phenyl)quinazolin-8-yl)pyrrolidin-1-yl)prop-2-en-1-one]
< 50 |  | C=CC(=O)Nc1cccc(-c2cc(-c3ccc(C(=O)Nc4ccccn4)cc3)c(N)c3cncnc23)c1 [C170, 4-(8-(3-acrylamidophenyl)-5-aminoquinazolin-6-yl)-N-(pyridin-2-yl)benzamide]
< 50 | > 100 | C=CC(=O)N1CCC(c2cc(-c3ccc(Oc4cc(C(F)(F)F)ccn4)cc3)c(N)c3cncnc23)C1 (stereo not shown) [C193, 1-(3-(5-amino-6-(4-((4-(trifluoromethyl)pyridin-2-yl)oxy)phenyl)quinazolin-8-yl)pyrrolidin-1-yl)prop-2-en-1-one]
